Source: patent US20220370625A1, “THERAPEUTIC CONJUGATES” (Totus Medicines Inc., priority 2019, published 2022)

These compounds were tested against T1, estrogen receptor (Homo sapiens, UniProt P03372) (assay: NanoBRET screening of ARCS (binding assay with washout) in transfected HEK293 cells). Conditions: HEK293 cells transfected with NanoLuc-target fusion, estrogen receptor.
T1 construct: expressed in transfected cells; host or cells: HEK293 (Gibco 293-H), transient transfection with FuGENE HD
T1 sequence (P03372 1-595): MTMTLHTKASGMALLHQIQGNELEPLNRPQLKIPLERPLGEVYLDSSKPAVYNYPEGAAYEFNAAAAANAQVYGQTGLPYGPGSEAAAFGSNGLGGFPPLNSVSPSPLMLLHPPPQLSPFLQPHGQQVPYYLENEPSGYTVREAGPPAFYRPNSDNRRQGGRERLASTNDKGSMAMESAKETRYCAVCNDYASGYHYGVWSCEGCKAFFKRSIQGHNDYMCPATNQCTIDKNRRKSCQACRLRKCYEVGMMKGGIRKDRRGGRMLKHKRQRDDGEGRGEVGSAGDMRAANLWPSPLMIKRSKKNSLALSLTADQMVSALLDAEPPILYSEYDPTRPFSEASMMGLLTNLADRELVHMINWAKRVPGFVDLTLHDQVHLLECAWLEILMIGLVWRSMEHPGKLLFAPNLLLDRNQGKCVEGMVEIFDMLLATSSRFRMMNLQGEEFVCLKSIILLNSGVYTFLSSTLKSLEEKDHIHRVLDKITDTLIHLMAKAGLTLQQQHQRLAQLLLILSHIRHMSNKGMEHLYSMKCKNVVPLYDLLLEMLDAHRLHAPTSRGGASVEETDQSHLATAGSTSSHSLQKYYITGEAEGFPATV
Experimental: Human embryonic kidney 293-H (HEK 293, Gibco 293-H, #11631017) cell lines are maintained in Dulbecco's Modified Eagle Medium, high glucose, pyruvate (DMEM, Gibco, #11995065) supplemented with 10% fetal bovine serum (FBS, Gibco, #10082147) and 1× penicillin-streptomycin (100× solution, Gibco, #15140148) at 37° C. and 5% CO2 in a water-saturated incubator. Cell are trypsinized using 0.05% or 0.25% Trypsin-EDTA solution (Trypsin-EDTA, phenol red, Gibco, #25200056 (0.25%) or #25300054). Opti-MEM media supplemented with 10% fetal bovine serum (Opti-MEM I reduced serum media, no phenol red, Gibco, #11058021) is used for culturing cells overnight for NanoBRET readout experiments.
HEK293 cells are cultivated appropriately prior to assay. The medium from cell flask is removed via aspiration, washed 1× with PBS followed by aspiration, trypsinized, and cells are allowed to dissociate from the flask. Trypsin is neutralized using growth medium and cells are pelleted via centrifugation at 200×g for 5 minutes. The medium is aspirated and the cells are resuspended into a single cell suspension using Opti-MEM I supplemented with 10% FBS. The cell density is adjusted to 2×10^5/mL in Opti-MEM I supplemented with 10% FBS in a sterile, conical tube. The cells are transfected and aliquoted directly in a 96-well plate for the NanoBRET assay the next day, and therefore, the cells are cultured overnight in Opti-MEM. The cells are also transfected in bulk and dispensed into a 96-well plate to allow cells to adhere to the plate overnight, thereby enabling washout studies.
The lipid:DNA complexes are prepared as follows:
A 10 μg/mL solution of DNA is prepared in Opti-MEM without serum. This solution contains the following ratios of carrier DNA and DNA encoding NanoLuc fused to the biological target. Serial dilution steps may be warranted to accurately dilute the NanoLuc fusion DNA. Added, in order, the following reagents to a sterile polystyrene test tube: 1 mL of Opti-MEM without phenol red; 9.0 μg/mL of carrier DNA; 1.0 μg/mL of NanoLuc fusion DNA (for some targets, the amount is less). The reagents are mixed thoroughly. 30 μL of FuGENE HD is added into each mL of DNA mixture to form lipid:DNA complex. […] It is mixed by pipetting up and down 5-10 times and incubated at room temperature for 20 minutes to allow complexes to form. 1 part (e.g. 1 mL) of lipid:DNA complex is mixed with 20 parts (e.g. 20 mL) of HEK293 cells in suspension at 2×10^5/mL and mixed gently by pipetting up and down 5 times in a sterile, conical tube. Larger or smaller bulk transfections are scaled accordingly, using this ratio. 100 μL cells+lipid:DNA complex is dispensed into a sterile, tissue-culture treated 96-well plate (20,000 cells/well), and incubated at least 16 hours to allow expression. The cells are incubated in a 37° C.+5% CO2 incubator for >16 hrs. A serially diluted inhibitor or test compound is prepared at 100× final concentration in 100% DMSO. The serially diluted inhibitor stock is prepared in PCR plates. 1 μL per well of 100× serially diluted inhibitor/test compound is added to the cells in 96-well plates that have been transiently transfected overnight and mixed by tapping the plate by hand. The plate is incubated at 37° C.+5% CO2 incubator overnight. A 1× solution of substrate mix (500× stock) and appropriate concentration of tracer is prepared in Opti-Mem. The cells are washed by setting a plate washer to the 96 well plate 5× in PBS pH 7.4 by adding 200 μL PBS each time. The cells are incubated at 37° C. for 2 hours. 100 μL of the 1× Substrate-Tracer solution is added and the 96 well plate is gently tapped to mix. The plate on plate reader is read every hour for the next 6 hours.
The binding assays of some ARCS are shown below. Compound 2-314 formed a covalent bond with an estrogen receptor of <20%. Compounds 2-302 and 2-303 formed a covalent bond with an estrogen receptor from about 50% to 70%. […]

Row | Binding Potential (Percent inhibition) | SMILES
1 | +++ (+++ 80-90%) | CC1Cc2c([nH]c3ccccc23)C(c2c(F)cc(OCCNCC=CC(=O)N(C)C)nc2F)N1CC(C)(C)F (centres unmarked) [Compound 2-102]
2 | ++++ (++++ >90%) | CC1Cc2c([nH]c3ccccc23)C(c2c(F)cc(OCCNCC=CC(=O)N(C)C)cc2F)N1CC(C)(C)F (centres unmarked) [Compound 2-103]
3 | ++++ (++++ >90%) | C[C@@H]1Cc2c([nH]c3ccccc23)[C@@H](c2c(F)cc(OCCNC/C=C/C(=O)N(C)C)cc2F)N1CC(C)(F)CO (some centres unmarked) [Compound 2-106]
4 | +++ (+++ 80-90%) | CC1Cc2c([nH]c3ccccc23)C(c2ccc(NCCNCC=CC(=O)N(C)C)nc2)N1CC(C)(C)F (centres unmarked) [Compound 2-107]
5 | +++ (+++ 80-90%) | CC1Cc2c([nH]c3ccccc23)C(c2c(F)cc(NCCNCC=CC(=O)N(C)C)nc2F)N1CC(C)(C)F (centres unmarked) [Compound 2-108]
6 | +++ (+++ 80-90%) | CC1Cc2c([nH]c3ccccc23)C(c2c(F)cc(NCCNCC=CC(=O)N(C)C)cc2F)N1CC(C)(C)F (centres unmarked) [Compound 2-109]
7 | ++++ (++++ >90%) | CC1Cc2c([nH]c3cc(F)ccc23)C(c2c(F)cc(OCCNCC=CC(=O)N(C)C)cc2F)N1CC(C)(C)F (centres unmarked) [Compound 2-115]
8 | ++++ (++++ >90%) | CC1Cc2c([nH]c3cc(F)ccc23)C(c2c(F)cc(OCCNCC=CC(=O)N(C)C)cc2F)N1CC(C)(F)CO (centres unmarked) [Compound 2-118]
9 | +++ (+++ 80-90%) | C#CCCCNC(=O)C=CCNCCOc1cc(F)c(C2c3[nH]c4ccccc4c3CC(C)N2CC(C)(C)F)c(F)c1 (centres unmarked) [Compound 2-300]
10 | +++ (+++ 80-90%) | CC1Cc2c([nH]c3ccccc23)C(c2c(F)cc(N)cc2F)N1CC(C)(C)F (centres unmarked) [Compound 2-301]
11 | ++ (++ 50-70%) | CC1Cc2c([nH]c3ccccc23)C(c2ccc(C=CCNCC=CC(=O)N(C)C)nc2)N1CC(C)(C)F (centres unmarked) [Compound 2-302]
12 | ++ (++ 50-70%) | CC1Cc2c([nH]c3ccccc23)C(c2c(F)cc(C=CCNCC=CC(=O)N(C)C)cc2F)N1CC(C)(C)F (centres unmarked) [Compound 2-303]
13 | ++++ (++++ >90%) | CC1Cc2c([nH]c3ccccc23)C(c2c(F)cc(C=CCNCC=CC(=O)N(C)C)nc2F)N1CC(C)(C)F (centres unmarked) [Compound 2-304]
14 | ++++ (++++ >90%) | C=CC(=O)NCCc1ccc(C2c3[nH]c4ccccc4c3CC(C)N2CC(C)(C)F)cn1 (centres unmarked) [Compound 2-305]
15 | ++++ (++++ >90%) | C=CC(=O)NCCc1cc(F)c(C2c3[nH]c4ccccc4c3CC(C)N2CC(C)(C)F)c(F)n1 (centres unmarked) [Compound 2-306]
16 | ++++ (++++ >90%) | C=CC(=O)NCCc1cc(F)c(C2c3[nH]c4ccccc4c3CC(C)N2CC(C)(C)F)c(F)c1 (centres unmarked) [Compound 2-307]
17 | ++++ (++++ >90%) | CC#CC(=O)NCCc1ccc(C2c3[nH]c4ccccc4c3CC(C)N2CC(C)(C)F)cn1 (centres unmarked) [Compound 2-308]
18 | ++++ (++++ >90%) | CC#CC(=O)NCCc1cc(F)c(C2c3[nH]c4ccccc4c3CC(C)N2CC(C)(C)F)c(F)n1 (centres unmarked) [Compound 2-309]
19 | ++++ (++++ >90%) | CC#CC(=O)NCCc1cc(F)c(C2c3[nH]c4ccccc4c3CC(C)N2CC(C)(C)F)c(F)c1 (centres unmarked) [Compound 2-310]
20 | ++++ (++++ >90%) | C#CCN(C)C(=O)C=CCNCCOc1cc(F)c(C2c3[nH]c4ccccc4c3CC(C)N2CC(C)(C)F)c(F)c1 (centres unmarked) [Compound 2-311]
21 | ++++ (++++ >90%) | CC1Cc2c([nH]c3ccccc23)C(c2ccc(N)cc2)N1CC(C)(C)F (centres unmarked) [Compound 2-312]
22 | + (+ <20%) | CC1Cc2c([nH]c3ccccc23)C(c2ccc(N)nc2)N1CC(C)(C)F (centres unmarked) [Compound 2-314]
23 | ++++ (++++ >90%) | CC1Cc2c([nH]c3ccccc23)C(c2ccc(OCCNCC=CC(=O)N(C)C)nc2)N1CC(C)(C)F (centres unmarked) [Compound 2-315]
24 | ++++ (++++ >90%) | C=CC(=O)NCCOc1ccc(C2c3[nH]c4ccccc4c3CC(C)N2CC(C)(C)F)cn1 (centres unmarked) [Compound 2-316]

Same assay, conditions: HEK293 cells transfected with NanoLuc-target fusion, overnight incubation, washout

Row | activity of an estrogen receptor is inhibited [%] | formed a covalent bond with an estrogen receptor [%] | SMILES
25 | < 20 | < 20 | CC1Cc2c([nH]c3ccccc23)C(c2ccc(N)nc2)N1CC(C)(C)F (centres unmarked) [Compound 2-314]
